In PMC3368601 (Chemistry & biology, 2011):

Target: AAK1 (adaptor-associated kinase 1) (Homo sapiens, UniProt Q2M2I8)
Experiment: ADP-Glo kinase assay with recombinant AAK1 and AP2M1 peptide
Type: biochemical

AAK1 (adaptor-associated kinase 1), sequence (Q2M2I8 46-315 limits assumed): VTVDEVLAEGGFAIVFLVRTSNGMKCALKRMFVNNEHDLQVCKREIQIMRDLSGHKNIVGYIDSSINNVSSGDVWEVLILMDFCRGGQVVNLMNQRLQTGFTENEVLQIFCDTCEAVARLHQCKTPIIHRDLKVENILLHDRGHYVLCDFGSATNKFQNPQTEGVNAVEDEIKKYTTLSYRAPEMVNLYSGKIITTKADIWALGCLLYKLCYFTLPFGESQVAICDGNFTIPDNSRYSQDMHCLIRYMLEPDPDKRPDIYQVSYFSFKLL

Which IC50 does the source give for `COC(=O)C1(O)C[C@H]2O[C@]1(C)n1c3ccccc3c3c4c(c5c6ccccc6n2c5c31)C(=O)NC4` (stereo partly shown) [compound 1, K252a] here?
The IC50 was < 10 nM.
